Reference: PubChem BioAssay AID330 (DTP/NCI, 2004)
Values joined by “and” are separate entries in the source; they are usually repeats but may differ in a detail not shown here. Equal entries are not always repeated. Inconclusive results and toxic doses are left out.

System: P388 leukemia ip, CD2F1 mice, survival T/C
Assay: NCI In Vivo Anticancer Drug Screen. Data for tumor model P388 Leukemia (intraperitoneal) in CD2F1 (CDF1) mice
Conditions: endpoint: median survival time, higher = longer survival
Procedure, shortened: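 Mice carrying the transplanted tumor received test compound or vehicle. Survival was recorded in each group, and the value is the treated-group measurement divided by that of the vehicle-treated control group.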

[1] = dose: 7.5 mg/kg/injection, schedule: Q01DX005 (ip), vehicle: saline with Tween-80
[2] = dose: 50.0 mg/kg/injection, schedule: Q01DX005 (ip), vehicle: Klucel (hydroxypropylcellulose) (HPC)
[3] = dose: 100.0 mg/kg/injection, schedule: Q01DX005 (ip), vehicle: Klucel (hydroxypropylcellulose) (HPC)
[4] = dose: 6.25 mg/kg/injection, schedule: Q01DX005 (ip), vehicle: saline with Tween-80
[5] = dose: 12.5 mg/kg/injection, schedule: Q01DX005 (ip), vehicle: saline with Tween-80
[6] = dose: 25.0 mg/kg/injection, schedule: Q01DX005 (ip), vehicle: saline with Tween-80
[7] = dose: 50.0 mg/kg/injection, schedule: Q01DX005 (ip), vehicle: saline with Tween-80
[8] = dose: 100.0 mg/kg/injection, schedule: Q01DX005 (ip), vehicle: saline with Tween-80
[9] = dose: 200.0 mg/kg/injection, schedule: Q01DX005 (ip), vehicle: saline with Tween-80
[10] = dose: 25.0 mg/kg/injection, schedule: Q01DX009 (ip), vehicle: saline with Tween-80
[11] = dose: 50.0 mg/kg/injection, schedule: Q01DX009 (ip), vehicle: saline with Tween-80
[12] = dose: 100.0 mg/kg/injection, schedule: Q01DX009 (ip), vehicle: saline with Tween-80
[13] = dose: 200.0 mg/kg/injection, schedule: Q01DX009 (ip), vehicle: saline with Tween-80
[14] = dose: 50.0 mg/kg/injection, schedule: Q01DX005 (ip), vehicle: saline
[15] = dose: 100.0 mg/kg/injection, schedule: Q01DX005 (ip), vehicle: saline
[16] = dose: 200.0 mg/kg/injection, schedule: Q01DX005 (ip), vehicle: saline
[17] = dose: 25.0 mg/kg/injection, schedule: Q01DX009 (ip), vehicle: saline
[18] = dose: 50.0 mg/kg/injection, schedule: Q01DX009 (ip), vehicle: saline
[19] = dose: 50.0 mg/kg/injection, schedule: Q01DX009 (ip), vehicle: Klucel (hydroxypropylcellulose) (HPC)
[20] = dose: 100.0 mg/kg/injection, schedule: Q01DX009 (ip), vehicle: Klucel (hydroxypropylcellulose) (HPC)
[21] = dose: 200.0 mg/kg/injection, schedule: Q01DX009 (ip), vehicle: Klucel (hydroxypropylcellulose) (HPC)

SMILES: CN(Cc1cnc2nc(N)nc(N)c2n1)c1ccc(C(=O)NC(CCC(=O)OCc2cc3c(cc2Cl)OCO3)C(=O)OCc2cc3c(cc2Cl)OCO3)cc1 (stereo not given)
- T/C (dose: 0.94 mg/kg/injection, schedule: Q01DX005 (ip), vehicle: saline with Tween-80): 166 % of control
- T/C (dose: 1.87 mg/kg/injection, schedule: Q01DX005 (ip), vehicle: saline with Tween-80): 184 % of control and 186 % of control
- T/C [1]: 99 % of control and 118 % of control

SMILES: CC(C)[C@H](C)C(=O)C1OCOC(C2CC(=O)NC(=O)C2)[C@@H]1O (stereo not given in full)
- T/C (dose: 0.01 mg/kg/injection, schedule: Q01DX009 (ip), vehicle: distilled water + alcohol): 102 % of control
- T/C (dose: 0.03 mg/kg/injection, schedule: Q01DX009 (ip), vehicle: distilled water + alcohol): 109 % of control
- T/C (dose: 0.06 mg/kg/injection, schedule: Q01DX009 (ip), vehicle: distilled water + alcohol): 109 % of control
- T/C (dose: 0.12 mg/kg/injection, schedule: Q01DX009 (ip), vehicle: distilled water + alcohol): 100 % of control

SMILES: O=[N+]([O-])C1CCCCCCCCCCC1
- T/C (dose: 100.0 mg/kg/injection, schedule: Q01DX001 (ip), vehicle: other): 100 % of control
- T/C (dose: 200.0 mg/kg/injection, schedule: Q01DX001 (ip), vehicle: other): 100 % of control
- T/C (dose: 400.0 mg/kg/injection, schedule: Q01DX001 (ip), vehicle: other): 108 % of control

SMILES: CC1(C)[S][Sn]2[NH]C1C(=O)[O]2 (stereo not given)
- T/C [2]: 98 % of control
- T/C [3]: 94 % of control

SMILES: CCCn1cc2c3c(cccc31)[C@H]1C[C@@H](C)CN(C)[C@@H]1C2
- T/C (dose: 3.12 mg/kg/injection, schedule: Q01DX005 (ip), vehicle: saline with Tween-80): 102 % of control and 107 % of control
- T/C [4]: 100 % of control and 105 % of control and 107 % of control
- T/C [5]: 102 % of control and 92 % of control and 93 % of control
- T/C [6]: 98 % of control and 101 % of control
- T/C [7]: 101 % of control
- T/C [8]: 104 % of control
- T/C [9]: 98 % of control

SMILES: CCOC(=O)Nc1nccs1
- T/C [10]: 108 % of control
- T/C [11]: 103 % of control
- T/C [12]: 102 % of control
- T/C [13]: 108 % of control

SMILES: CC1(COc2ccccc2OCC2(C)CO2)CO1 (stereo not given)
- T/C (dose: 1.88 mg/kg/injection, schedule: Q01DX005 (ip), vehicle: saline with Tween-80): 102 % of control
- T/C (dose: 3.75 mg/kg/injection, schedule: Q01DX005 (ip), vehicle: saline with Tween-80): 100 % of control
- T/C [1]: 98 % of control
- T/C (dose: 15.0 mg/kg/injection, schedule: Q01DX005 (ip), vehicle: saline with Tween-80): 100 % of control
- T/C (dose: 30.0 mg/kg/injection, schedule: Q01DX005 (ip), vehicle: saline with Tween-80): 100 % of control
- T/C (dose: 60.0 mg/kg/injection, schedule: Q01DX005 (ip), vehicle: saline with Tween-80): 102 % of control
- T/C (dose: 120.0 mg/kg/injection, schedule: Q01DX005 (ip), vehicle: saline with Tween-80): 107 % of control

SMILES: N/N=C1\C(Cl)=C(Cl)c2ccccc21
- T/C [2]: 90 % of control
- T/C [3]: 93 % of control
- T/C (dose: 200.0 mg/kg/injection, schedule: Q01DX005 (ip), vehicle: Klucel (hydroxypropylcellulose) (HPC)): 90 % of control

SMILES: CC(C)NC(=O)N1C2C3CCC(C)(OC3(C)C)C21 (stereo not given)
- T/C [14]: 108 % of control
- T/C [15]: 101 % of control
- T/C [16]: 101 % of control

SMILES: Cc1cc(NC(=O)c2ccc(NC(=O)c3ccc(N)cc3)cc2)ccc1N=Nc1ccc2c(O)c(N=Nc3ccc4cc(S(=O)(=O)O)ccc4c3)c(S(=O)(=O)O)cc2c1
- T/C [7]: 94 % of control
- T/C [8]: 103 % of control
- T/C [9]: 94 % of control

SMILES: CN(C)c1ccc(/C=N/NC(=O)C(=O)NCc2ccco2)cc1
- T/C [11]: 94 % of control
- T/C [12]: 86 % of control
- T/C [13]: 91 % of control

SMILES: CCCCCCCCCCCCCCOCC(O)CN(CCO)CCO (stereo not given)
- T/C (dose: 12.5 mg/kg/injection, schedule: Q01DX009 (ip), vehicle: saline): 105 % of control
- T/C [17]: 105 % of control
- T/C [18]: 88 % of control and 98 % of control

SMILES: CNC(=O)N(N=O)c1[nH]c(=O)ncc1Br
- T/C (dose: 50.0 mg/kg/injection, schedule: Q01DX005 (ip), vehicle: saline + Tween-80 + alcohol): 104 % of control
- T/C (dose: 100.0 mg/kg/injection, schedule: Q01DX005 (ip), vehicle: saline + Tween-80 + alcohol): 108 % of control
- T/C (dose: 200.0 mg/kg/injection, schedule: Q01DX005 (ip), vehicle: saline + Tween-80 + alcohol): 118 % of control

SMILES: Clc1ccc(CSSCc2ccc(Cl)cc2)cc1
- T/C (dose: 12.5 mg/kg/injection, schedule: Q04DX003 (ip), vehicle: saline with Tween-80): 100 % of control
- T/C (dose: 25.0 mg/kg/injection, schedule: Q04DX003 (ip), vehicle: saline with Tween-80): 100 % of control
- T/C (dose: 50.0 mg/kg/injection, schedule: Q04DX003 (ip), vehicle: saline with Tween-80): 100 % of control
- T/C (dose: 100.0 mg/kg/injection, schedule: Q04DX003 (ip), vehicle: saline with Tween-80): 107 % of control

SMILES: O=C1c2ccncc2C(=O)N1CCO
- T/C (dose: 60.0 mg/kg/injection, schedule: Q01DX005 (ip), vehicle: saline): 103 % of control
- T/C (dose: 120.0 mg/kg/injection, schedule: Q01DX005 (ip), vehicle: saline): 104 % of control
- T/C (dose: 240.0 mg/kg/injection, schedule: Q01DX005 (ip), vehicle: saline): 101 % of control

SMILES: O=C1Oc2nc3ccccc3cc2/C1=C/c1ccccc1
- T/C (dose: 100.0 mg/kg/injection, schedule: Q04DX002 (ip), vehicle: saline with Tween-80): 89 % of control
- T/C (dose: 200.0 mg/kg/injection, schedule: Q04DX002 (ip), vehicle: saline with Tween-80): 92 % of control
- T/C (dose: 400.0 mg/kg/injection, schedule: Q04DX002 (ip), vehicle: saline with Tween-80): 99 % of control

SMILES: Nc1c[nH]c2ccccc2c1=O
- T/C [19]: 104 % of control
- T/C [20]: 101 % of control
- T/C [21]: 100 % of control

SMILES: COc1ccc2ncc(COC(=O)NC3CCCCC3)c(COC(=O)NC3CCCCC3)c2c1
- T/C (dose: 12.5 mg/kg/injection, schedule: Q01DX005 (ip), vehicle: Klucel (hydroxypropylcellulose) (HPC)): 91 % of control
- T/C (dose: 25.0 mg/kg/injection, schedule: Q01DX005 (ip), vehicle: Klucel (hydroxypropylcellulose) (HPC)): 94 % of control
- T/C [2]: 88 % of control

SMILES: CC(C)n1c(=O)nc(-c2ccccc2)c2cc3c(cc21)OCO3
- T/C [19]: 106 % of control
- T/C [20]: 108 % of control
- T/C [21]: 91 % of control

SMILES: CSCCCNC(=O)c1csc(-c2csc(CCNC(=O)[C@@H](NSc3ccccc3[N+](=O)[O-])[C@@H](C)O)n2)n1
- T/C [4]: 100 % of control
- T/C [5]: 104 % of control
- T/C [6]: 95 % of control
- T/C [7]: 87 % of control
- T/C [9]: 87 % of control

SMILES: O=[N+]([O-])c1ccc(-c2nc(/C=N/N3CCCCC3)cs2)o1
- T/C [10]: 100 % of control
- T/C [11]: 100 % of control
- T/C [12]: 99 % of control

SMILES: CCCC(O)CCC(O)=C1C(=O)CCC1=O (stereo not given)
- T/C [14]: 107 % of control
- T/C [15]: 107 % of control
- T/C [16]: 107 % of control

SMILES: Nc1cc(N2C(=O)c3ccccc3C2=O)ccc1Cl
- T/C [7]: 109 % of control
- T/C [8]: 109 % of control
- T/C [9]: 100 % of control

SMILES: NC(=O)C(Br)(Br)C(=O)c1nc(N)nc(N)n1
- T/C [7]: 107 % of control
- T/C [8]: 99 % of control

SMILES: CC1=C/C(=C(\c2cc(C)c(O)c(C(=O)O)c2)c2c(Cl)ccc(S(=O)(=O)O)c2Cl)C=C(C(=O)O)C1=O
- T/C [17]: 102 % of control
- T/C [18]: 102 % of control and 91 % of control
- T/C (dose: 100.0 mg/kg/injection, schedule: Q01DX009 (ip), vehicle: saline): 108 % of control and 95 % of control
- T/C (dose: 200.0 mg/kg/injection, schedule: Q01DX009 (ip), vehicle: saline): 98 % of control and 106 % of control

SMILES: CCCCCCCCCCCCCCCC(=O)N(C/C=C/CN(CCCN(C)C)C(=O)CCCCCCCCCCCCCCC)CCCN(C)C
- T/C (dose: 6.25 mg/kg/injection, schedule: Q01DX009 (ip), vehicle: saline with Tween-80): 100 % of control
- T/C (dose: 12.5 mg/kg/injection, schedule: Q01DX009 (ip), vehicle: saline with Tween-80): 90 % of control
- T/C [10]: 90 % of control
